Data reported in the CheMixHub viscosity set.
Where “and” joins values, the source holds several entries; their conditions need not be identical. Equal values may be shown once.

Assay: xn = mol fraction of the nth substance listed

C[N+](C)(C)CCO.[Cl-] + OCCO
Conditions | viscosity
293.15 K, 100 kPa, x1 = 0.333 | 40.01 mPa·s
293.15 K, 100 kPa, x1 = 0.34 | 59.14 mPa·s
293.15 K, 101 kPa, x1 = 0.333 | 42.3 mPa·s
293.15 K, 101 kPa, x2 = 0.7 | 56.22 mPa·s
293.15 K, 101.3 kPa, x2 = 0.6675 | 60 mPa·s
293.15 K, 101.3 kPa, x2 = 0.7 | 53.07 mPa·s
293.15 K, 101.3 kPa, x2 = 0.7499 | 37.35 mPa·s
293.15 K, 101.3 kPa, x2 = 0.7999 | 31.8 mPa·s
293.15 K, 101.3 kPa, x2 = 0.8332 | 28.49 mPa·s
293.15 K, 101.3 kPa, x2 = 0.8571 | 25.56 mPa·s
298 K, 100 kPa, x1 = 0.333 | 45.1 mPa·s
298 K, 101 kPa, x1 = 0.333 | 42 mPa·s
298.15 K, 100 kPa, x1 = 0.333 | 41 mPa·s and 32.73 mPa·s
298.15 K, 100 kPa, x1 = 0.34 | 47.74 mPa·s
298.15 K, 101 kPa, x1 = 0.2 | 20.1 mPa·s
298.15 K, 101 kPa, x1 = 0.333 | 35.1 mPa·s
298.15 K, 101.1 kPa, x1 = 0.333 | 39.45 mPa·s
298.15 K, 101.3 kPa, x2 = 0.6675 | 48.59 mPa·s
298.15 K, 101.3 kPa, x2 = 0.7 | 43.03 mPa·s
298.15 K, 101.3 kPa, x2 = 0.7499 | 31.12 mPa·s
298.15 K, 101.3 kPa, x2 = 0.7999 | 26.21 mPa·s
298.15 K, 101.3 kPa, x2 = 0.8332 | 23.36 mPa·s
298.15 K, 101.3 kPa, x2 = 0.8571 | 20.93 mPa·s
298.15 K, 101.33 kPa, x2 = 0.7 | 48 mPa·s
298.2 K, 101.3 kPa, x1 = 0.1247 | 20.5 mPa·s
298.2 K, 101.3 kPa, x1 = 0.1675 | 23.2 mPa·s
298.2 K, 101.3 kPa, x1 = 0.2 | 24.5 mPa·s
298.2 K, 101.3 kPa, x1 = 0.2513 | 27.2 mPa·s
303 K, 100 kPa, x1 = 0.333 | 36.8 mPa·s
303 K, 101 kPa, x1 = 0.3333 | 51.8 mPa·s
303.15 K, 100 kPa, x1 = 0.333 | 27.13 mPa·s and 52.15 mPa·s
303.15 K, 100 kPa, x1 = 0.34 | 39.1 mPa·s
303.15 K, 101 kPa, x1 = 0.333 | 33.1 mPa·s
303.15 K, 101 kPa, x2 = 0.7 | 35 mPa·s and 37.15 mPa·s
303.15 K, 101.3 kPa, x2 = 0.6675 | 39.78 mPa·s
303.15 K, 101.3 kPa, x2 = 0.7 | 35.06 mPa·s
303.15 K, 101.3 kPa, x2 = 0.7499 | 25.72 mPa·s
303.15 K, 101.3 kPa, x2 = 0.7999 | 21.7 mPa·s
303.15 K, 101.3 kPa, x2 = 0.8332 | 19.36 mPa·s
303.15 K, 101.3 kPa, x2 = 0.8571 | 17.34 mPa·s
308 K, 100 kPa, x1 = 0.333 | 30.8 mPa·s
308 K, 101 kPa, x1 = 0.3333 | 45.7 mPa·s
308.15 K, 100 kPa, x1 = 0.333 | 22.76 mPa·s
308.15 K, 100 kPa, x1 = 0.34 | 32.42 mPa·s
308.15 K, 101 kPa, x1 = 0.3333 | 30.9 mPa·s
308.15 K, 101.3 kPa, x2 = 0.6675 | 33.15 mPa·s
308.15 K, 101.3 kPa, x2 = 0.7 | 29.02 mPa·s
308.15 K, 101.3 kPa, x2 = 0.7499 | 21.63 mPa·s
308.15 K, 101.3 kPa, x2 = 0.7999 | 18.29 mPa·s
308.15 K, 101.3 kPa, x2 = 0.8332 | 16.22 mPa·s
308.15 K, 101.3 kPa, x2 = 0.8571 | 14.52 mPa·s
308.2 K, 101.3 kPa, x1 = 0.1247 | 15.3 mPa·s
308.2 K, 101.3 kPa, x1 = 0.1675 | 17.4 mPa·s
308.2 K, 101.3 kPa, x1 = 0.2 | 18.6 mPa·s
308.2 K, 101.3 kPa, x1 = 0.2513 | 20.7 mPa·s
313 K, 100 kPa, x1 = 0.333 | 26 mPa·s
313 K, 101 kPa, x1 = 0.333 | 23 mPa·s
313 K, 101 kPa, x1 = 0.3333 | 40.7 mPa·s
313.15 K, 100 kPa, x1 = 0.333 | 19.32 mPa·s and 41.27 mPa·s
313.15 K, 100 kPa, x1 = 0.34 | 27.44 mPa·s
313.15 K, 101 kPa, x1 = 0.333 | 26.3 mPa·s
313.15 K, 101 kPa, x1 = 0.3333 | 25.8 mPa·s
313.15 K, 101 kPa, x2 = 0.7 | 25.84 mPa·s
313.15 K, 101.3 kPa, x2 = 0.6675 | 27.77 mPa·s
313.15 K, 101.3 kPa, x2 = 0.7 | 24.22 mPa·s
313.15 K, 101.3 kPa, x2 = 0.7499 | 18.27 mPa·s
313.15 K, 101.3 kPa, x2 = 0.7999 | 15.52 mPa·s
313.15 K, 101.3 kPa, x2 = 0.8332 | 13.72 mPa·s
313.15 K, 101.3 kPa, x2 = 0.8571 | 12.3 mPa·s
318 K, 100 kPa, x1 = 0.333 | 21.6 mPa·s
318 K, 101 kPa, x1 = 0.3333 | 36.4 mPa·s
318.15 K, 100 kPa, x1 = 0.333 | 16.57 mPa·s
318.15 K, 100 kPa, x1 = 0.34 | 23.03 mPa·s
318.15 K, 101 kPa, x1 = 0.2 | 10.5 mPa·s
318.15 K, 101 kPa, x1 = 0.333 | 15.6 mPa·s
318.15 K, 101 kPa, x1 = 0.3333 | 21.9 mPa·s
318.15 K, 101.3 kPa, x2 = 0.6675 | 23.61 mPa·s
318.15 K, 101.3 kPa, x2 = 0.7 | 20.47 mPa·s
318.15 K, 101.3 kPa, x2 = 0.7499 | 15.68 mPa·s
318.15 K, 101.3 kPa, x2 = 0.7999 | 13.3 mPa·s
318.15 K, 101.3 kPa, x2 = 0.8332 | 11.67 mPa·s
318.15 K, 101.3 kPa, x2 = 0.8571 | 10.51 mPa·s
318.2 K, 101.3 kPa, x1 = 0.1247 | 11.4 mPa·s
318.2 K, 101.3 kPa, x1 = 0.1675 | 13.1 mPa·s
318.2 K, 101.3 kPa, x1 = 0.2 | 14.2 mPa·s
318.2 K, 101.3 kPa, x1 = 0.2513 | 16.3 mPa·s
323 K, 100 kPa, x1 = 0.333 | 18.8 mPa·s
323 K, 101 kPa, x1 = 0.333 | 16 mPa·s
323 K, 101 kPa, x1 = 0.3333 | 32.8 mPa·s
323.15 K, 100 kPa, x1 = 0.333 | 14.33 mPa·s and 33.33 mPa·s
323.15 K, 101 kPa, x1 = 0.333 | 21.2 mPa·s
323.15 K, 101 kPa, x1 = 0.3333 | 18.8 mPa·s
323.15 K, 101.3 kPa, x2 = 0.6675 | 20.3 mPa·s
323.15 K, 101.3 kPa, x2 = 0.7 | 17.41 mPa·s
323.15 K, 101.3 kPa, x2 = 0.7499 | 13.57 mPa·s
323.15 K, 101.3 kPa, x2 = 0.7999 | 11.5 mPa·s
323.15 K, 101.3 kPa, x2 = 0.8332 | 9.98 mPa·s
323.15 K, 101.3 kPa, x2 = 0.8571 | 9.07 mPa·s
